52 molecules from PubChem BioAssay AID179 (DTP/NCI, 2004) can be followed below.

For this test, the system named is CEM cells HIV-1 protection, formazan growth assay. As to the kind of experiment: NCI AIDS Antiviral Assay. The note with it: for IC50: measured here: growth of uninfected CEM cells. In outline:
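Five concentrations of each compound were applied to infected and uninfected human CEM cells. Protection from HIV-1 was judged from growth measured with a soluble formazan assay.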

Active and inactive are the calls of the source.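 How the source made its calls: active means compounds giving half or more protection of infected cells from virus-caused growth loss, again on retest; inactive means the rest.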

As a reminder, the EC50 is the concentration giving half of the maximal effect. The term IC50 denotes the point on the concentration scale where inhibition reaches its midpoint. Lower therefore signals greater potency. `CCN(CC)Cc1cc(Nc2ccnc3ccc4nn(C)nc4c23)ccc1O`: the EC50 was > 603 µM and the IC50 came to 15.8 µM.
With `Cc1ccc2c(c1)[nH]c(=S)n2/C=C1\C(=O)Oc2ccccc2C1=O`, the EC50 is > 200 µM and the half-inhibitory concentration (IC50) was found to be 36.3 µM.
For `CC(C)c1cc2c(cc1S(=O)(=O)O)[C@@]1(C)CCC[C@@](C)(C(=O)O)C1CC2` (stereo partly drawn), the EC50 was > 200 µM and the IC50 is > 200 µM.
Regarding `N#CCc1nc(-c2ccccc2)n[nH]1`, the EC50 was > 200 µM and the IC50 was > 200 µM.
Consider `CC1(C)CC(=O)C2C(C1)OC1CC(C)(C)CC(=O)C1C2c1ccc2c(c1)OCO2` (stereo not drawn), for which the EC50 is > 200 µM and the IC50 was 155 µM.
The corresponding values for `CC(C)(c1ccc(OC#N)cc1)c1ccc(OC#N)cc1` are > 67.6 µM and > 67.6 µM.
The corresponding values for `COc1ccc(/C=N/NC(=O)c2sc(=S)n(-c3ccccc3)c2N)cc1` are > 9.77 µM and > 9.77 µM.
For `CC1OC(OC2C(Oc3ccc4c(=O)c(-c5ccc(O)c(O)c5O)coc4c3)OC(CO)C(O)C2O)C(O)C(O)C1O` (stereo not drawn), in that order: > 200 µM and 67.6 µM.
Regarding `CC(=Nc1ccccc1C(=O)[O-])c1c([O-])ccc2c(C)cc(=O)oc12.[Ni+2].[OH3+]`, the EC50 was > 2.51 µM and the IC50 was > 2.51 µM.
Take `Nc1n[n+]([O-])c2ccc(Cl)cc2[n+]1[O-]`: the EC50 was > 200 µM and the IC50 worked out at 3.55 µM.
Regarding `COc1cc(CNc2cnc3ccc(N)cc3n2)cc(OC)c1OC`, the EC50 was > 525 µM and the IC50 came out at 35.5 µM.
For `COc1ccc2c(c1)[C@@H](NC(C)=O)CCc1cc(OC)c(OC)c(OC)c1-2`, in that order: > 0.0708 µM and 0.011 µM.
On to `CC1CC2(C)ON=C(c3ccccc3)N2c2ccccc2S1` (stereo not drawn), for which the result was inactive.
In the case of `c1ccc(N=C2SC(=NC3CCCCC3)N(C3CCCCC3)C2=Nc2ccccc2)cc1`, the EC50 was > 200 µM and the IC50 was > 200 µM.
On to `CC1=C(c2cc(C(=O)Nc3nccs3)nc(NC#N)n2)Sc2ccccc2N1`, for which the EC50 was > 45.7 µM and the IC50 was > 45.7 µM.
Turning to `CCOC(=O)/C(=C\c1ccccc1Cl)P(=O)(OCC)OCC`, the EC50 was > 20.9 µM and the IC50 stood at 11.7 µM.
For `Clc1ccc(-c2c3nc(c(-c4ccc(Cl)cc4)c4ccc([nH]4)c(-c4ccc(Cl)cc4)c4nc(c(-c5ccc(Cl)cc5)c5ccc2[nH]5)C=C4)C=C3)cc1`, in that order: > 200 µM and > 200 µM.
For `O=C(CCC(=O)Nc1ccc(C2=NCCN2)cc1)Nc1ccc(C2=NCCN2)cc1`, in that order: 95.5 µM and 141 µM.
For `CCSCCCSCCSCC`, in that order: > 158 µM and > 158 µM.
Turning to `CCOC(=O)c1c(-c2[nH]c(C(=O)OCc3ccccc3)c(C)c2C(=O)OCC)[nH]c(C(=O)OCc2ccccc2)c1C`, the result was inactive.
`O=C(NCCSSCCNC(=O)/C(Cc1ccc(O)c(Br)c1)=N/O)/C(Cc1ccc(O)c(Br)c1)=N/O`: the outcome was inactive.
Take `COc1ccc2nc3c([N+](=O)[O-])ccc(NCCN(C)C)c3c(NCCN(C)C)c2c1`: the EC50 is > 200 µM and the concentration for half-maximal inhibition (IC50) came out at 1.07 µM.
Consider `CC1=CC(c2ccccc2)n2c(nc3cc4ccccc4cc32)N1` (stereo not drawn), for which the EC50 was > 200 µM and the IC50 is > 200 µM.
For `Cc1cc2c(C(C)C)c(O)c(O)c(C=NCc3ccoc3)c2c(O)c1-c1c(C)cc2c(C(C)C)c(O)c(O)c(C=NCc3ccco3)c2c1O`, the EC50 was > 200 µM and the IC50 worked out at 10 µM.
Consider `CCOP(=O)(OCC)/C(C#N)=C(\C)c1ccco1`, for which the EC50 was > 200 µM and the IC50 was > 200 µM.
Turning to `Nc1[nH]c(=S)nc2nc3c(c(-c4ccccc4)c12)CCCC3`, the EC50 was > 50.1 µM and the IC50 was > 50.1 µM.
Regarding `O=c1[nH]c(=O)n(C2CC(O)C(CO)O2)cc1/C=C/Br` (stereo not drawn), the EC50 was > 759 µM and the IC50 came to 741 µM.
For `Cc1cccc(NC(=O)C(=O)Cc2nc3ccccc3[nH]c2=O)c1C`, the result was inactive.
With `c1ccc([P+](Cc2ccc(C[P+](c3ccccc3)(c3ccccc3)c3ccccc3)cc2)(c2ccccc2)c2ccccc2)cc1`, the EC50 was 17.4 µM and the IC50 was 38 µM.
The corresponding values for `C1CCC(OC2CSC2)OC1` (stereo not drawn) are > 389 µM and > 389 µM.
The corresponding values for `NNC(=S)SSC(=S)NN` are > 200 µM and 21.9 µM.
Take `CC1=C2CC[C@@]3(C)C(=CCC3O)C2(C)CCC1=O` (stereo partly drawn): the outcome was inactive.
Regarding `CC(C)(C)c1ccc(Br)c(CCC(=O)NO)c1`, the outcome was inactive.
With `CC(C)O/N=C/c1cc(NC(=S)OC(C)C)ccc1Cl`, the EC50 was 0.0447 µM and the IC50 is 22.9 µM.
The corresponding values for `Cc1ccccc1[B-]12OCC[N+]1(CNC(=O)C1=C(O)C3(O)C(=O)C4=C(O)c5c(O)cccc5C(C)(O)C4CC3C(N(C)C)C1=O)CCO2` (stereo not drawn) are > 53.7 µM and > 53.7 µM.
With `CC([C@H]1CCC2C3CCC4CC5(CC[C@]4(C)C3CC[C@@]21C)c1ccccc1C(=O)N5C)N(C)C` (stereo partly drawn), the EC50 is > 8.13 µM and the IC50 was > 8.13 µM.
Regarding `C=CC1C(=C)CCC2C1CCC1C(C)(C(=O)O)CCCC21C` (stereo not drawn), the outcome was inactive.
Still for that read-out and setting: the same measure for `CC(=O)Oc1c(C(C)C)cc2c(c1OC(C)=O)CC1(C)OC(=O)CC(C)(C)C1=CC2` (stereo not drawn): “inactive”.
With `Nc1ccc(S(=O)(=O)S(=O)(=O)c2ccc(N)cc2)cc1`, the EC50 is > 200 µM and the IC50 turned out to be 112 µM.
With `CN(c1ccccc1)c1c(-c2ccccc2)c(=O)oc2c1ccc1occc12`, the result was inactive.
Take `[N-]=[N+]=NCCOCn1ccc(=O)[nH]c1=O`: the EC50 was > 200 µM and the IC50 was > 200 µM.
As for `O=C(O)[C@H]1[C@@H](C2CCCCC2)O[C@@H](C2CCCCC2)O[C@H]1C(F)(F)F`, the EC50 was > 200 µM and the IC50 was 191 µM.
The corresponding values for `C=C1C(=O)C23C(O)C1CC[C@H]2C12CCCC(C)(C)[C@H]1[C@H](O)[C@]3(O)OC2` (stereo partly drawn) are > 724 µM and 0.339 µM.
For `C=C1CC(C)(COc2ccc3c(C)c(C)c(=O)oc3c2C)OC1=O` (stereo not drawn), in that order: > 2 µM and 0.891 µM.
Turning to `Nc1ccc(/C=C/c2ccc(N=Nc3cc(S(=O)(=O)O)c4cccnc4c3O)cc2S(=O)(=O)O)c(S(=O)(=O)O)c1`, the EC50 was 34.7 µM and the IC50 was > 200 µM.
Regarding `CN1CC(C)(C)NC(=O)[C@@](C)(OCc2ccccc2)CN(C)CC(C)(C)NC(=O)[C@](C)(OCc2ccccc2)C1`, the EC50 is > 200 µM and the IC50 stood at 120 µM.
For `COc1ccc(OC)c(/C=C2/C(=O)N=C(NC(C)=O)N2C)c1`, in that order: > 200 µM and > 200 µM.
The corresponding values for `CCOC(=O)N1CC2(C)C=CC1C(C(=O)OC)C2` (stereo not drawn) are > 200 µM and > 200 µM.
The corresponding values for `O=[N+]([O-])c1cc2n[nH]nc2c2nonc12` are > 200 µM and 4.79 µM.
Regarding `CN(C)CCCOc1c(Br)cc(CCN(C)C)cc1Br`, the outcome was inactive.
Still for that read-out and setting: the same measure for `CC1(C)CC(=O)C2=C(C1)Nc1ccccc1S2`: “inactive”.
`O=P(c1ccccc1)(c1ccccc1)C(NCc1ccccc1)c1ccc(F)cc1` (stereo not drawn): the EC50 was > 200 µM and the IC50 is 12.9 µM.
